Results reported in ChEMBL document CHEMBL1126379, “Pyrrole analogues of the pyrrolidinone moiety of the potassium channel activator cromakalim as relaxants of guinea pig trachealis” (Bioorg Med Chem Lett, 1992).

How the values were obtained:
[1] = organism: Cavia porcellus; assay: Inhibition of tone in guinea pig trachealis; format: functional
[2] = organism: Cavia porcellus; assay: Relaxant activity expressed as in vitro inhibition of tone in guinea pig trachealis; format: functional

CC1(C)C=C(n2ccc(C#N)c2)c2cc(C#N)ccc2O1
Intrinsic activity [1]: 0.89 | IC50 [2]: 2400 nM

CC1OC2=C(c3cc(C#N)ccc3OC2(C)C)n2cccc21 (stereo not drawn)
Intrinsic activity [1]: 0.8 | IC50 [2]: 1370 nM

CC1(C)C=C(n2ccc([N+](=O)[O-])c2)c2cc(C#N)ccc2O1
Intrinsic activity [1]: 0.79 | IC50 [2]: 1020 nM

CC(=O)c1cccn1C1=CC(C)(C)Oc2ccc(C#N)cc21
Intrinsic activity [1]: 0.22 | IC50 [2]: > 20000 nM

CC1(C)Oc2ccc(C#N)cc2[C@@H](n2cccc2[N+](=O)[O-])[C@@H]1O
Intrinsic activity [1]: 0.88 | IC50 [2]: 370 nM

CCc1cccn1C1=CC(C)(C)Oc2ccc(C#N)cc21
Intrinsic activity [1]: 0.32 | IC50 [2]: > 20000 nM

CC1(C)C=C(n2cccc2)c2cc(C#N)ccc2O1
Intrinsic activity [1]: 0.78 | IC50 [2]: 4080 nM

CC1(C)Oc2ccc(C#N)cc2[C@H]2n3cccc3[C@@H](C(F)(F)F)O[C@]21O
Intrinsic activity [1]: 0.96 | IC50 [2]: 80 nM

CC(=O)N[C@@H]1c2cc(C#N)ccc2OC(C)(C)[C@H]1O
Intrinsic activity [1]: 0.78 | IC50 [2]: 2900 nM

CC1(C)Oc2ccc(C#N)cc2C2=C1OC(c1ccccc1)c1cccn12 (stereo not drawn)
Intrinsic activity [1]: 0.21 | IC50 [2]: > 2000 nM

CC1(C)Oc2ccc(C#N)cc2[C@@H](n2cccc2C(=O)C(F)(F)F)[C@@H]1O
Intrinsic activity [1]: 0.28 | IC50 [2]: > 20000 nM

CC1(C)C=C(n2cccc2C(=O)C(F)(F)F)c2cc(C#N)ccc2O1
Intrinsic activity [1]: 0.91 | IC50 [2]: 690 nM

CC1(C)C=C(n2cccc2[N+](=O)[O-])c2cc(C#N)ccc2O1
Intrinsic activity [1]: 0.88 | IC50 [2]: 690 nM

CC1(C)Oc2ccc(C#N)cc2[C@@H](n2cccc2)[C@@H]1O
Intrinsic activity [1]: 0.19 | IC50 [2]: > 20000 nM

C/C(=C\C#N)N[C@@H]1c2cc(C#N)ccc2OC(C)(C)[C@H]1O
Intrinsic activity [1]: 0.96 | IC50 [2]: 1230 nM

CC1(C)Oc2ccc(C#N)cc2[C@H]2n3cccc3CO[C@]21O
Intrinsic activity [1]: 0.85 | IC50 [2]: 10400 nM

CC1(C)Oc2ccc(C#N)cc2[C@@H](N2CCCC2=O)[C@@H]1O [CROMAKALIM]
Intrinsic activity [1]: 0.89
